Test results: patent publication US20200100497A1, “SAFENERS AND FORMULATIONS CONTAINING SAFENERS, BIOCIDES AND INOCULANTS” (Bayer CropScience LP, priority 2017, published 2020)

Legend:
[1] = C-13 NMR stability of the formaldehyde/sodium bisulfite/N,N-dimethylamine adduct in aqueous solution; assay type: physicochemical; conditions: room temperature; for Conversion of N,N-dimethyl adduct back to formaldehyde bisulfite adduct: 18 days
Method: In a small vial, 137 mg of formaldehyde sodium bisulfite (CAS 870-72-4) was combined with 10 mL of high purity water and 200 mg of N,N-dimethylamine and stirred at room temperature to mix. The resulting mixture was stored at room temperature.
Aliquots of the mixture was analysed by C-13 NMR spectral analysis 48 hours and 18 days following formation.

[2] = Stability of CropStar formulation and thiodicarb in presence of sodium bisulfite, Example 1; assay type: physicochemical
Method: Sodium bisulfite was added to CropStar® (150 g/L imidacloprid+450 g/L thiodicarb; Bayer CropScience) in various mole ratios to formaldehyde (0.5:1, 1:1, 2:1, and 5:1) with or without pH adjustment to pH 7. Efficacy of sodium bisulfite was compared to no safener (Sample Nos. 1 & 5), two comparative safeners (Safener 1 & Safener 2), and inoculum only (BIAGRO Liquido NG—liquid inoculant and BIAGRO 10 Plus—peat-based inoculant). Safener 1 was obtained from Novozymes and contains the following active ingredients: soybean oil (CAS #8001-22-7), hydrolysed starch syrups (CAS #8029-43-4), and yeast extract (CAS #8013-01-2). Safener 2 was provided by Biagro and contains the following active ingredients: yeast extract, K2HPO4, and milk powder.

Compound | Conversion of N,N-dimethyl adduct back to formaldehyde bisulfite adduct [1] | Conversion of N,N-dimethyl adduct back to formaldehyde bisulfite adduct ([1]; listed as N,N-dimethylamine product) [%] | Time for which adduct is stable / takes to reverse back to formaldehyde bisulfite adduct [1] [days] | Degradation of thiodicarb ([2]; 1:1 mole ratio of sodium bisulfite to formaldehyde in CropStar) | Physical stability of the CropStar formulation ([2]; sodium bisulfite added to CropStar)
CN(C)CS(=O)(=O)O [N,N-dimethyl adduct (CAS 68507-34-6), 1-(dimethylamino)-methanesulfonic acid] | approximately 3.5% | 3.5 | > 18 |  | 
O=S([O-])O.[Na+] [sodium bisulfite] |  |  |  | did not significantly degrade thiodicarb | without affecting the physical stability of the formulation
